Tests used:
morningglory = experiment: Test A pre-/postemergence herbicide test; type: in vivo, Ipomoea spp.
Procedure, shortened: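 Visual injury rating on a 0–100 scale (0 no effect, 100 complete control) versus untreated controls, about ten days after treatment in greenhouse. Pre: directed soil spray onto seeded sandy loam. Post: spray to runoff on plants 2–10 cm tall at one- to two-leaf stage.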

rice [1] = experiment: Test B pre-/postemergence herbicide test; type: in vivo, Oryza sativa; conditions: preemergence
Procedure, shortened: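 Response was scored visually 13 to 15 days after treatment against untreated greenhouse controls, 0 meaning no effect and 100 complete control. Formulations (solvent mixture plus surfactant) went onto soil after planting, onto foliage of 1- to 4-leaf plants, and onto 2-leaf plants in a flooded paddy set including rice and barnyardgrass.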

eastern black nightshade = experiment: Test C pre-/postemergence herbicide test; type: in vivo, Solanum ptycanthum; conditions: for Plant response rating (0 = no effect, 100 = complete control), Nightshade: 62 g ai/ha; for Plant response rating (0 = no effect, 100 = complete control), Nightshade / Plant response rating, Nightshade: preemergence; for Plant response rating, Nightshade: 125 g ai/ha, scale 0 (no effect) to 100 (complete control), visual, 12 to 14 days; for Nightshade plant response rating: Preemergence, 500 g ai/ha, scale 0 to 100, 0 no effect, 100 complete control
Procedure, shortened: (§1)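 Pre- and postemergence application, solvent/surfactant formulation; post at 1- to 4-leaf stage (2–18 cm). Greenhouse 12–14 d. Visual rating vs controls, 0 = no effect, 100 = complete control.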

[2] = tested on: smallflower umbrella sedge; experiment: Test C flooded paddy test; type: in vivo, Cyperus difformis
rice [3] = experiment: Test C flooded paddy test; type: in vivo, Oryza sativa
Procedure, shortened: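 Injury scored visually against controls on a 0 (no effect) to 100 (complete control) scale, 12 to 14 days after treatment in greenhouse. Flooded paddy plants treated at 2-leaf stage; postemergence plants at 1- to 4-leaf stage, 2 to 18 cm tall.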

yellow nutsedge = experiment: Test C pre-/postemergence herbicide test; type: in vivo, Cyperus esculentus; conditions: for Nutsedge, Yellow plant response rating: 500 g ai/ha
Procedure, shortened: as §1

goosegrass = experiment: Test C pre-/postemergence herbicide test; type: in vivo, Eleusine indica; conditions: for Goosegrass plant response rating: 500 g ai/ha
Procedure, shortened: as §1

soybean = experiment: Test C pre-/postemergence herbicide test; type: in vivo, Glycine max; conditions: for Soybean plant response rating: 500 g ai/ha
Procedure, shortened: as §1

[4] = Postemergence, 500 g ai/ha, 0 to 100 scale, 0 no effect, 100 complete control
[5] = Postemergence, 2000 g ai/ha, 0 to 100 scale, 0 no effect, 100 complete control
[6] = Preemergence, 500 g ai/ha, visual rating, 0 to 100 scale (0 no effect, 100 complete control)
[7] = Preemergence, 2000 g ai/ha, visual rating, 0 to 100 scale (0 no effect, 100 complete control)
[8] = 500 g ai/ha, visual rating 0-100, 0 no effect, 100 complete control
[9] = 125 g ai/ha, 0 to 100 scale, 0 is no effect, 100 is complete control
[10] = 62 g ai/ha, scale 0 to 100 (0 no effect, 100 complete control)
[11] = 125 g ai/ha, scale 0 to 100 (0 no effect, 100 complete control)
[12] = 250 g ai/ha, scale of 0 to 100, 0 is no effect, 100 is complete control
[13] = 500 g ai/ha, visual rating after 12 to 14 days, scale 0 to 100 (0 no effect, 100 complete control)
[14] = 125 g ai/ha, scale 0 (no effect) to 100 (complete control), visual, 12 to 14 days, preemergence
[15] = Postemergence, 250 g ai/ha, scale 0 to 100, 0 no effect, 100 complete control
[16] = Preemergence, scale 0 to 100, 0 no effect, 100 complete control
[17] = postemergence, 125 g ai/ha, scale 0 to 100
[18] = postemergence, 62 g ai/ha, scale 0 to 100

Row | SMILES | Morningglory plant response rating (morningglory; [4]) | Plant response rating, Morningglory (morningglory; [5]) | Morningglory plant response rating (morningglory; [6]) | Morningglory plant response rating (morningglory; [7]) | Plant response rating, Rice (rice [1]; [8]) | Plant response rating, Rice (rice [1]; [9]) | Plant response rating (0 = no effect, 100 = complete control), Nightshade (eastern black nightshade) | Plant response rating, Nightshade (eastern black nightshade) | Nightshade plant response rating (eastern black nightshade) | Sedge, Umbrella plant response rating [2, 10] | Sedge, Umbrella plant response rating [2, 11] | Rice plant response rating (rice [3]; [10]) | Rice plant response rating (rice [3]; [11]) | Plant response rating (0 = no effect, 100 = complete control), Nutsedge, Yellow (yellow nutsedge; 62 g ai/ha, preemergence) | Plant response rating, Nutsedge, Yellow (yellow nutsedge; [14]) | Nutsedge, Yellow plant response rating (yellow nutsedge; Postemergence, scale 0 to 100) | Plant response rating, Nutsedge, Yellow (yellow nutsedge; [15]) | Nutsedge, Yellow plant response rating (yellow nutsedge; [16]) | Plant response rating, Nutsedge, Yellow (yellow nutsedge; [17]) | Plant response rating, Nutsedge, Yellow (yellow nutsedge; [18]) | other results
1 | CCNC(=O)c1cccc(NC(=O)c2cc(C(C)(C)C)nn2CC)n1 [Compound 144] | 25 | 35 | 20 | 75 | 30 | 20 | 90 | 100 | 100 | 80 | 80 | 0 | 20 | 0 | 0 | 0 | 0 | 40 | 0 | 0 | Sedge, Umbrella plant response rating [2, 12]: 80; Plant response rating, Sedge, Umbrella [2, 13]: 90; Rice plant response rating (rice [3]; [12]): 30; Plant response rating, Rice (rice [3]; [13]): 30; Plant response rating (0 = no effect, 100 = complete control), Goosegrass (goosegrass; 62 g ai/ha, preemergence): 30; Plant response rating, Goosegrass (goosegrass; [14]): 60; Goosegrass plant response rating (goosegrass; Postemergence, scale 0 to 100): 20; Plant response rating, Goosegrass (goosegrass; [15]): 10; Goosegrass plant response rating (goosegrass; [16]): 80; Plant response rating, Goosegrass (goosegrass; [17]): 5; Plant response rating, Goosegrass (goosegrass; [18]): 5; Plant response rating (0 = no effect, 100 = complete control), Soybean (soybean; 62 g ai/ha, preemergence): 0; Plant response rating, Soybean (soybean; [14]): 40; Soybean plant response rating (soybean; Postemergence, scale 0 to 100): 90; Plant response rating, Soybean (soybean; [15]): 90; Soybean plant response rating (soybean; [16]): 80; Plant response rating, Soybean (soybean; [17]): 85; Plant response rating, Soybean (soybean; [18]): 70
2 | C#CCNC(=O)c1cccc(NC(=O)c2cc(C(C)(C)C)nn2CC)n1 [Compound 147] | 20 | 30 | 20 | 45 | 10 | 0 | 40 | 70 | 100 | 30 | 50 | 0 | 0 | 0 | 0 | 0 | 0 | 0 | 0 | 0 | Sedge, Umbrella plant response rating ([2]; 16 g ai/ha, scale 0 to 100): 0; Sedge, Umbrella plant response rating ([2]; 31 g ai/ha, scale 0 to 100): 20; Rice plant response rating (rice [3]; 16 g ai/ha, scale 0 to 100): 0; Rice plant response rating (rice [3]; 31 g ai/ha, scale 0 to 100): 0; Plant response rating (0 = no effect, 100 = complete control), Goosegrass (goosegrass; 62 g ai/ha, preemergence): 0; Plant response rating, Goosegrass (goosegrass; [14]): 20; Goosegrass plant response rating (goosegrass; Postemergence, scale 0 to 100): 5; Plant response rating, Goosegrass (goosegrass; [15]): 5; Goosegrass plant response rating (goosegrass; [16]): 80; Plant response rating, Goosegrass (goosegrass; [17]): 0; Plant response rating, Goosegrass (goosegrass; [18]): 0; Plant response rating (0 = no effect, 100 = complete control), Soybean (soybean; 62 g ai/ha, preemergence): 0; Plant response rating, Soybean (soybean; [14]): 0; Soybean plant response rating (soybean; Postemergence, scale 0 to 100): 70; Plant response rating, Soybean (soybean; [15]): 40; Soybean plant response rating (soybean; [16]): 5; Plant response rating, Soybean (soybean; [17]): 35; Plant response rating, Soybean (soybean; [18]): 10
